What all share (assay): KINOMEscan competition binding
What all share (details): compound 10.0 µM

In test [1] the target is ALK (human) (UniProt Q9UM73).
Test [2] concerns the target NEK6 (human) (UniProt Q9HC98).
The target of test [3] is CAMK2D (human) (UniProt Q13557).
The target of test [4] is MARK2 (human) (UniProt Q7KZI7).
Test [5] concerns the target EIF2AK2 (human) (UniProt P19525).
The target in test [6] is PDGFRA (human) (UniProt P16234).
Test [7] concerns RET (human), P07949 [M918T].
The target in test [8] is STK10 (human) (UniProt O94804).
Test [9] deals with CDK3 (human) (UniProt Q00526).
The target in test [10] is PIK3C2B (human) (UniProt O00750).
In test [11] the target is PRKX (human) (UniProt P51817).
Test [12] addresses FGFR4 (human) (UniProt P22455).
For test [13], the target named is MAP2K1 (human) (UniProt Q02750).
Test [14] has as its target PRKACA (human) (UniProt P17612).
Test [15] addresses MAP4K3 (human) (UniProt Q8IVH8).
The target in test [16] is RIPK1 (human) (UniProt Q13546).
The target of test [17] is TXK (human) (UniProt P42681).
Test [18] addresses CDK11B (human) (UniProt P21127).
Test [19] deals with EGFR (human), P00533 [A750P; 747-749 del].
In test [20] the target is INSR (human) (UniProt P06213).
In test [21] the target is IKBKE (human) (UniProt Q14164).
For test [22], the target named is ROCK2 (human) (UniProt O75116).
Test [23] deals with PKMYT1 (human) (UniProt Q99640).
In test [24] the target is MAPK12 (human) (UniProt P53778).
Test [25] concerns the target MST4 (human) (UniProt Q9P289).
Test [26] has as its target LIMK1 (human) (UniProt P53667).
The target in test [27] is PKN1 (human) (UniProt Q16512).
In test [28] the target is RPS6KA5 KD1 (human) (UniProt O75582).
Test [29] relates to FGFR3 (human), P22607 [G697C].
In test [30] the target is ITK (human) (UniProt Q08881).
Test [31] concerns the target TYRO3 (human) (UniProt Q06418).
Test [32] addresses AURKA (human) (UniProt O14965).
For test [33], the system named is ABL1 (human), P00519 [Y253F].
Test [34] relates to ABL1 (human), P00519 [F317L].
The target of test [35] is LIMK2 (human) (UniProt P53671).
Test [36] deals with ACVRL1 (human) (UniProt P37023).
Test [37] concerns the target PHKG1 (human) (UniProt Q16816).
The target of test [38] is LCK (human) (UniProt P06239).
Test [39] addresses MAPKAPK5 (human) (UniProt Q8IW41).
Test [40] has as its target MARK4 (human) (UniProt Q96L34).
The target in test [41] is EPHB4 (human) (UniProt P54760).

PKN1 (human), sequence (Q16512 whole entry, looked up): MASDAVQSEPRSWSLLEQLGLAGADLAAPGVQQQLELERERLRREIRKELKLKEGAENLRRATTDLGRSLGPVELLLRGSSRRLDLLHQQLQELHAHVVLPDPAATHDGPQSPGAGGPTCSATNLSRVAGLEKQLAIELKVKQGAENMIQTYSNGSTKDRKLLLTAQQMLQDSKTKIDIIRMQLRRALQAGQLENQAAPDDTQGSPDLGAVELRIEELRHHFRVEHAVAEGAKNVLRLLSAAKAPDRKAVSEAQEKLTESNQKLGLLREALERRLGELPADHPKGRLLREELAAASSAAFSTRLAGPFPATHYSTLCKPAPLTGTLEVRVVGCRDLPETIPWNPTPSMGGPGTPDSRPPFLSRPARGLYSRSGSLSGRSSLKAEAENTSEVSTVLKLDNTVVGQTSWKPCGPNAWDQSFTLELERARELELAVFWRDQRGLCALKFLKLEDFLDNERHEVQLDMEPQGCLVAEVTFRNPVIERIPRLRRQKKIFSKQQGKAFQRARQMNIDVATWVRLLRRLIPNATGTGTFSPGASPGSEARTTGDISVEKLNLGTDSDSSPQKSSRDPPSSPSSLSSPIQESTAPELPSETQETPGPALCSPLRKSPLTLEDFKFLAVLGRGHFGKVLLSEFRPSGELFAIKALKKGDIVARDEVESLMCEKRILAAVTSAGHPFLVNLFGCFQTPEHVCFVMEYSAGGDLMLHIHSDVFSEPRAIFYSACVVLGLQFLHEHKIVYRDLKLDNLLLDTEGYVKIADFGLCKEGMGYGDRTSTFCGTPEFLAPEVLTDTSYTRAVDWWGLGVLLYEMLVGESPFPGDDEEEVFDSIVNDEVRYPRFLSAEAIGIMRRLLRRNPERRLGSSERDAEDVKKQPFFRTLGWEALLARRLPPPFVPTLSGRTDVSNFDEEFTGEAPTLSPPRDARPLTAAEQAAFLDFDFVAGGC
STK10 (human), sequence (O94804 whole entry, looked up): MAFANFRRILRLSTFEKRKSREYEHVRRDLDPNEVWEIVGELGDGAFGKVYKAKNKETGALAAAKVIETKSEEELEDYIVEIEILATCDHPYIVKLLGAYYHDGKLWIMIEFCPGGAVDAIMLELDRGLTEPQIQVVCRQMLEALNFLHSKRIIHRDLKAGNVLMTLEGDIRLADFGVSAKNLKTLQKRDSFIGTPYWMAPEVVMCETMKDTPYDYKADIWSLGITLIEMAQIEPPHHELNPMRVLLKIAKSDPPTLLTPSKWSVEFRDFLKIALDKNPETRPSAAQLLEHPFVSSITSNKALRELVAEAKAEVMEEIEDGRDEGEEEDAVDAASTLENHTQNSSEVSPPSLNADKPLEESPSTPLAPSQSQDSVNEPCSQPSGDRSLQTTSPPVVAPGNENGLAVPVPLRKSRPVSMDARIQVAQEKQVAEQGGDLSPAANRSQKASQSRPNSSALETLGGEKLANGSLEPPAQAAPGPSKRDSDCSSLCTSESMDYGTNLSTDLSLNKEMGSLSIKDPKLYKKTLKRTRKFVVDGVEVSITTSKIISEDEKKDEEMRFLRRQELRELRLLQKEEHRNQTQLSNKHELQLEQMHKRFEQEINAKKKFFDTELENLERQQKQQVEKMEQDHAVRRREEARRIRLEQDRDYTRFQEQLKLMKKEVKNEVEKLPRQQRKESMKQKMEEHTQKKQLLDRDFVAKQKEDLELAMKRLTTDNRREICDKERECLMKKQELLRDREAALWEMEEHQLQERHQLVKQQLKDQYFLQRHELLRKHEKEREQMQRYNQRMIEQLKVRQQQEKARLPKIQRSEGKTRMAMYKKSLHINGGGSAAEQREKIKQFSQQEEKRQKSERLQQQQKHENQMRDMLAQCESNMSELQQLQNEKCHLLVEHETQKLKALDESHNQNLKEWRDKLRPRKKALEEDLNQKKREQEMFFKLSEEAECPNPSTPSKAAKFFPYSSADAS
CAMK2D (human), sequence (Q13557 whole entry, looked up): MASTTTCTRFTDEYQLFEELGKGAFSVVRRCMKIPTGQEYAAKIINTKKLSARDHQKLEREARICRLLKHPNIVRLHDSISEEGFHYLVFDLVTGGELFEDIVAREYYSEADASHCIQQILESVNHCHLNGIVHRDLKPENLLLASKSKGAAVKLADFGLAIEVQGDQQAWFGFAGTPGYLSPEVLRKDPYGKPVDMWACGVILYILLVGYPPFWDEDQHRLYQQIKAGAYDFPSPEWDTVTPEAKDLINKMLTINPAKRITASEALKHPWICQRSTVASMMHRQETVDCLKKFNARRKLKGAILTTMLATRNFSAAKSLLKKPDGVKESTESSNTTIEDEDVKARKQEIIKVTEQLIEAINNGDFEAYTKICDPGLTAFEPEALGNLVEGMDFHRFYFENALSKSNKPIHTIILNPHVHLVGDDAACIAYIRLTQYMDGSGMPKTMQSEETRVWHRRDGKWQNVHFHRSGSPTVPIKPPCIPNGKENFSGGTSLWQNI
RET (human), P07949 [M918T], sequence (P07949 whole entry M918T, looked up): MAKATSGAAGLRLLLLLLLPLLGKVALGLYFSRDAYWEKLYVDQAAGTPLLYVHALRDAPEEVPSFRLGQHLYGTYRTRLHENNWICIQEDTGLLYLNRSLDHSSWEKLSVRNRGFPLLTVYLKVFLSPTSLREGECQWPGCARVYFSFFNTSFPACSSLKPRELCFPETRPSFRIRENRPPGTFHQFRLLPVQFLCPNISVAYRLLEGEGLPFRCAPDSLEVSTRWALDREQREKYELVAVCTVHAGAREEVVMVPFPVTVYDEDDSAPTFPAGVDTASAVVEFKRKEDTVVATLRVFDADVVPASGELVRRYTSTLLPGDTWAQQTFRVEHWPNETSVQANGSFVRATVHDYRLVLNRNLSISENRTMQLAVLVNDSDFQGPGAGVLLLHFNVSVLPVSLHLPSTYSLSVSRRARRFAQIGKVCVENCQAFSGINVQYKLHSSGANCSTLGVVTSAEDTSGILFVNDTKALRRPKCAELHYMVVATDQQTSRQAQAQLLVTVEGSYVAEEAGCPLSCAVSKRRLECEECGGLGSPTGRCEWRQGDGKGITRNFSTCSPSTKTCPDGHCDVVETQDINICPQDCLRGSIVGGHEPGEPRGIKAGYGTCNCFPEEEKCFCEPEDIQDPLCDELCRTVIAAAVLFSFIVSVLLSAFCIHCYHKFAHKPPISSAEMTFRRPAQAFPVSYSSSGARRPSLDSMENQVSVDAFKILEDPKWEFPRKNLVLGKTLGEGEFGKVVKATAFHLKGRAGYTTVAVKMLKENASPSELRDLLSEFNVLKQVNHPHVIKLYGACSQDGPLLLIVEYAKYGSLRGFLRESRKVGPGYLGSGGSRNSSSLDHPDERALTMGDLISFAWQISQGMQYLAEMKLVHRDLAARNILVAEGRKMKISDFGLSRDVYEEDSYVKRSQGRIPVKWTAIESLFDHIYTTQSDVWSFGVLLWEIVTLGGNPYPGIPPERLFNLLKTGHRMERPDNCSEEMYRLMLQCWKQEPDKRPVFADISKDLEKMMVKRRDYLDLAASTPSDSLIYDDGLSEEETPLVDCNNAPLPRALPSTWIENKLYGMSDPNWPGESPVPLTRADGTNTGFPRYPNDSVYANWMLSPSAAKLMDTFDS
NEK6 (human), sequence (Q9HC98 whole entry, looked up): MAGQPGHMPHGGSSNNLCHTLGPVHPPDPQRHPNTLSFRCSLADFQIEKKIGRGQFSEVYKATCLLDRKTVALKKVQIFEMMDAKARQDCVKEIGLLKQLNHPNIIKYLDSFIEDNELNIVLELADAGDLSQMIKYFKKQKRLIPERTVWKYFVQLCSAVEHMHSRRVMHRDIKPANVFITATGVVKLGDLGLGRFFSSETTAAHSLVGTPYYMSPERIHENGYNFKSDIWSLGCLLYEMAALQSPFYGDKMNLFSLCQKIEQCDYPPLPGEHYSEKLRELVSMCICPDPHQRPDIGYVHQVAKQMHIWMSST
EIF2AK2 (human), sequence (P19525 whole entry, looked up): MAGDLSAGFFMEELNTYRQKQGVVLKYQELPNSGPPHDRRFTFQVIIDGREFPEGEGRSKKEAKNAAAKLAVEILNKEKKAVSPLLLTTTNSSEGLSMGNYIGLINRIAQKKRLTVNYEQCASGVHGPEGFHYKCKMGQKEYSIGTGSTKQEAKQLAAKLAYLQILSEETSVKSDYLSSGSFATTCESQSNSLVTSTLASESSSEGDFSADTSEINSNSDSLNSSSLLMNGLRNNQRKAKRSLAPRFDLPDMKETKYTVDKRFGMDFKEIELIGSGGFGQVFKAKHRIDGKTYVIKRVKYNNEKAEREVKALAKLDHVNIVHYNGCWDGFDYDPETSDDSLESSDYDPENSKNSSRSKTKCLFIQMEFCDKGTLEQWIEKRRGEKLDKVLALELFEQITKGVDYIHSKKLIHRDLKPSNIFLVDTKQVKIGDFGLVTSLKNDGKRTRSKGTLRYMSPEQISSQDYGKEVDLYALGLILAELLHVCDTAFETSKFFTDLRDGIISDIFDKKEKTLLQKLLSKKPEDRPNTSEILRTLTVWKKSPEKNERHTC
CDK3 (human), sequence (Q00526 whole entry, looked up): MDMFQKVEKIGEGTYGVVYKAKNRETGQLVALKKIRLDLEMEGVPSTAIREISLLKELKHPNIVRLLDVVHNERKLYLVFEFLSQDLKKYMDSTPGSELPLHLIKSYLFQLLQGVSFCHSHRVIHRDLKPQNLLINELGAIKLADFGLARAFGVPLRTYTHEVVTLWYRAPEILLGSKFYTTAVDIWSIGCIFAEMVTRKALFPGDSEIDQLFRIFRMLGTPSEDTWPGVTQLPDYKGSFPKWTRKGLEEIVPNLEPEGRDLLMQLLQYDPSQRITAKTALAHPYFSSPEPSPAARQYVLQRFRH
PRKX (human), sequence (P51817 whole entry, looked up): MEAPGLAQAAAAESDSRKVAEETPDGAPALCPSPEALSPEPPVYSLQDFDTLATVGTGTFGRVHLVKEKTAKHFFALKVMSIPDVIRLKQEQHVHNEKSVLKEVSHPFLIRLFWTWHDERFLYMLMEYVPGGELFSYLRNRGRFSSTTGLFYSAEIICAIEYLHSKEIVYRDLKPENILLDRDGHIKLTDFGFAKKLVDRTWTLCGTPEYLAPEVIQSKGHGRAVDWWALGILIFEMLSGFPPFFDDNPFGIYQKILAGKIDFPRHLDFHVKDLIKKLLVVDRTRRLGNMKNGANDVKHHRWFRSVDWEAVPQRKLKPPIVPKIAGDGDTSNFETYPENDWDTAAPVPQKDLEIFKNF

With `O=C1NC(=S)S/C1=C\c1ccc(-c2cncc3ccccc23)o1`, the kinase still bound, per cent of control in test [1] was 30%; in test [2], 24%; in test [3], 32%; in test [4], 23%; in test [5] it was 23%.
Molecule `CS(=O)(=O)Nc1ccc(-c2cc(/C=C3\SC(=N)NC3=O)c[nH]c2=O)cc1` had a kinase still bound, per cent of control in test [6] of 8%.
As for `CS(=O)(=O)Nc1ccc(-c2ncc(/C=C3\SC(=N)NC3=O)s2)cc1`, the kinase still bound, per cent of control in [7] turned out to be 3.4%; in test [6], 26%; in test [8], 6.8%.
For the molecule `N=C1NC(=O)/C(=C/c2ccc(-c3ccc(C(N)=O)cc3O)o2)S1`, the kinase still bound, per cent of control in test [9] was 30%; in test [3], 34%; in [10] it was 28%.
On to `COc1cc(N2CCN(C)CC2)ccc1Nc1ncc2c(n1)N(C)c1ccccc1N(C)C2=O`, for which the kinase still bound, per cent of control in test [11] came to 83%; in [1], 11%; in test [12], 97%; in test [13], 85%; in test [14], 100%; in test [15], 100%. Further, the kinase still bound, per cent of control in test [16] is 100%; in test [17], 100%; in test [18], 100%; in test [19], 49%; in [9], 96%; in [20], 52%. For the same molecule, the kinase still bound, per cent of control in test [21] worked out at 100%; in test [22], 50%; in test [23], 96%; in [24], 78%; in test [7] it was 100%; in test [25], 91%. Also, the kinase still bound, per cent of control stood at 95% in test [26]; 80% in test [27]; 100% in test [2]; 100% in test [6]; 100% in [28]; 100% in test [29]. For the same molecule, the kinase still bound, per cent of control turned out to be 98% in test [30]; 100% in test [31]; 76% in test [32]; 100% in test [8]; 100% in test [33]; 45% in test [34]. Moreover, the kinase still bound, per cent of control in [35] came out at 86%; in test [36] it was 100%; in [37], 54%; in test [38], 100%; in [39] it was 100%; in [3] it was 99%. Further, the kinase still bound, per cent of control in test [4] was determined as 100%; in test [40], 63%; in test [10] it was 100%; in test [5], 93%; in [41], 100%.
For `Nc1cccc(-c2cc(/C=C3\SC(=O)NC3=O)c[nH]c2=O)c1`, the kinase still bound, per cent of control came to 9.4% in test [19] and 29% in [21].
For the molecule `N=C1NC(=O)/C(=C/c2ccc(-c3ccc(F)cc3O)o2)S1`, the kinase still bound, per cent of control in test [19] turned out to be 29%; in test [9], 6.5%; in test [25], 32%.
For `CS(=O)(=O)Nc1ccc(-c2cncc(/C=C3\SC(=N)NC3=O)c2)cc1`, the kinase still bound, per cent of control in test [15] was 32%; in [19], 17%; in [8] it was 26%; in [36] it was 3.6%.
In the case of `N=C1NC(=O)/C(=C/c2ccc(-c3cncc4ccccc34)o2)S1`, the kinase still bound, per cent of control in test [13] is 26%; in [17], 13%; in test [7], 21%; in test [27], 28%; in [2], 31%; in [6], 26%. Further, the kinase still bound, per cent of control in [37] came to 23%; in test [39], 12%; in test [3], 7.6%; in [5] it was 25%.
For the molecule `CN1C(=O)[C@H]2CCC[C@H]2N(C2CCCC2)c2nc(Nc3ccc(C(N)=O)cc3)ncc21`, the results for the kinase still bound, per cent of control in [27], in test [31] and in test [32] were 30%, 31% and 7.6%, respectively.
Consider `N=C1NC(=O)/C(=C/c2ccc(-c3ccccc3O)o2)S1`, for which the kinase still bound, per cent of control is 24% in test [9] and 31% in [10].
For `N=C1NC(=O)/C(=C/c2ccc(-c3csc4ccccc34)o2)S1`, the kinase still bound, per cent of control in test [1] worked out at 32%; in [2] it was 25%.

The record behind these values is the kinase profiling compilation of Christmann-Franck et al. (2016).
